Like-named read-outs stand apart in the source and are kept apart here.
Tests used:
PTGS1 = experiment: Human oxidative stress RT2 Profiler PCR array in HGEPp cells: PTGS1; type: cell-based; conditions: HGEPp cells pretreated 24 h at 100 μg/ml; ΔΔCt
Experimental: (§1) RT-PCR was performed on an iCycler.

HGEPp cells [1] = conditions: 100 μg/mL pretreatment; taken from PCT/IB2017/001312; cited from earlier work
HGEPp cells [2] = experiment: ROS production in H2O2-induced oxidatively stressed HGEPp cells; type: cell-based, human; conditions: HGEPp cells pretreated 24 hrs at 100 μg/mL prior to 0.3 mM H2O2 for 4 h; positive control 139%
Experimental: That same assay was carried out on the rotomer compositions prepared in Examples 1-11 above to determine their effect on protecting primary human gingival epithelial cells (HGEPp) cells from oxidative damage induced by hydrogen peroxide (H2O2).

ALOX12 = experiment: Human oxidative stress RT2 Profiler PCR array in HGEPp cells: ALOX12; type: cell-based; conditions: HGEPp cells pretreated 24 h at 100 μg/ml; ΔΔCt
Experimental: as §1

SOD1 = experiment: Human oxidative stress RT2 Profiler PCR array in HGEPp cells: SOD1; type: cell-based; conditions: HGEPp cells pretreated 24 h at 100 μg/ml; ΔΔCt
Experimental: as §1

GPX1 = experiment: Human oxidative stress RT2 Profiler PCR array in HGEPp cells: GPX1; type: cell-based; conditions: HGEPp cells pretreated 24 h at 100 μg/ml; ΔΔCt
Experimental: as §1

NQO1 = experiment: Human oxidative stress RT2 Profiler PCR array in HGEPp cells: NQO1; type: cell-based; conditions: HGEPp cells pretreated 24 h at 100 μg/ml; ΔΔCt
Experimental: as §1

GCLC = experiment: Human oxidative stress RT2 Profiler PCR array in HGEPp cells: GCLC; type: cell-based; conditions: HGEPp cells pretreated 24 h at 100 μg/ml; ΔΔCt
Experimental: as §1

GSTP1 = experiment: Human oxidative stress RT2 Profiler PCR array in HGEPp cells: GSTP1; type: cell-based; conditions: HGEPp cells pretreated 24 h at 100 μg/ml; ΔΔCt
Experimental: as §1

GCLM = experiment: Human oxidative stress RT2 Profiler PCR array in HGEPp cells: GCLM; type: cell-based; conditions: HGEPp cells pretreated 24 h at 100 μg/ml; ΔΔCt
Experimental: as §1

GTF2i = experiment: Human oxidative stress RT2 Profiler PCR array in HGEPp cells: GTF2i; type: cell-based; conditions: HGEPp cells pretreated 24 h at 100 μg/ml; ΔΔCt
Experimental: as §1

UCP2 = experiment: Human oxidative stress RT2 Profiler PCR array in HGEPp cells: UCP2; type: cell-based; conditions: HGEPp cells pretreated 24 h at 100 μg/ml; ΔΔCt
Experimental: as §1

rat cortical neurons = experiment: Caspase 3/7 activation assay, OGD-induced neurotoxicity in rat cortical neurons; type: cell-based; conditions: 100 μg/ml, 1 h incubation eighteen hours prior to OGD; FIG. 7
Experimental: The effect of the rotomer complexes of Examples 1, 2, 3 and 9 on neurotoxicity induced by oxygen glucose deprivation (OGD) was tested in a caspase 3/7 activation assay. The assay was applied to freshly isolated rat cortical neurons cultured in 96-well-plates and exposed to the compounds at 100 μg/ml.
In vitro ischemic injury was induced in rat primary neuronal culture by oxygen-glucose deprivation for 2 hours. Neurons were incubated with the compounds for 1 hour eighteen hours prior to the OGD induction. Dizocilpine (MK801) 10 μM was used as positive neuroprotection control. After treatments, incubated with three optically compatible fluorescent dyes, and subsequently analyzed with BD Pathway 855 (Becton Dickinson). Cell parameters associated with caspase 3/7 activation—indicative of pre-lethal cytotoxic effects—were measured by high content screening at single cell level.
Primary cultures of cortical neurons were isolated from cerebral cortices of Sprague-Dawley rat fetuses at embryonic day 18. Brains were removed and after removing the meninges, the tissues were dissected under a binocular microscope. Neurons were enzymatically dispersed by trypsin 0.2% and DNAse […] digestion for 10 min at 37° C. plated in poly-L-lysine wells and incubated with B27 supplemented neurobasal medium.
Cortical neurons of 18 days old embryonic rats were plated in poly-1-lysine coated 96-well plates (30,000 cells per well). Cells were maintained in neurobasal medium supplemented with B-27 component: for 5 days at 37° C. in a humidified 5% CO2 atmosphere. At day 5, cells were subjected to oxygen glucose deprivation (OGD) for 2 hours at 37° C. The cultures were placed in an […] chamber (Billops-Rothenberg) and incubated in neurobasal medium lacking glucose and B27 factor and aerated with an anaerobic gas mixture (94.7% N2. 5% CO2, 0.3% O2) to remove residual oxygen. Control cultures were kept in the original neurobasal medium but were submitted to the anaerobic conditions. At the end of the OGD conditions, the cells were removed from the anaerobic chamber, the OGD medium was replaced with neurobasal medium containing glucose, and the cells were incubated for an additional 24 h. The test compounds were added to the neurons eighteen hours prior to the OGD induction and maintained for 1 h. Replicate cultures were treated as described above with dizocilpine (MK801) as positive control of neuroprotection. The neuroprotective potential of the four rotomer complexes was determined by a caspase 3/7 activation assay.
(§2) Caspase 3/7 activation was determined using The CellEvent® Caspase-3/7 Green Detection Reagent which is intrinsically a non-fluorescent peptide that inhibits the ability of the dye to bind to DNA. However, after caspase-3/7 activation in apoptotic cells, the peptide is cleaved allowing the dye to bind to DNA producing a bright, fluorogenic response. Cell were stained with 5 μM reagent, washed 3 times and measured at 488 nm/530 nm Ex/Em. This dye permits the direct quantification of apoptotic cells.

[3] = tested on: mouse neonatal primary cardiomyocyte; conditions: 100 μg/ml, 4 hours prior to OGD, during 18 h OGD and 24 h recovery; FIG. 9
Experimental: as §2

MPO = experiment: Human oxidative stress RT2 Profiler PCR array in HGEPp cells: MPO; conditions: HGEPp cells pretreated 24 h at 100 μg/ml; ΔΔCt
Experimental: (§3) Pooled primary HGEPp cells were propagated in CnT-Prime epithelial culture medium provided by CellnTec on 100 mm petri dishes coated with 30 mg/ml Type I rat tail collagen (BD Biosciences) diluted in Duibecco's phosphate-buffered saline (DPBS). HGEPp cells were grown in 12×60 mm Nunc™ Cell Culture dishes at a 2.5×10^4 cells/cm2 density concentration.
(§4) All dosing solutions contained 0.3% of DMSO which is well below the maximum tolerated DMSO percent of 0.8% for HGEPp cells.
(§5) The RN-easy UCP Micro Kit was used to purify mRNA from the HGEPp cells.
(§6) The assay was reliably used to analyze expression levels of 84 genes related to oxidative stress in HGEPp cells pre-treated with ST-617-APT, ST-617-DPT and the rotomeric complexes at 100 μg/ml for 24 h. The cDNA from above was mixed with the RT2 SYBR Green fluor Mastermix and aliquoted into the wells of the RT2 Profiler PCR Array. RT-PCR was performed on an iCycler. Gene expression was compared using et values and the results were calculated using ΔΔ Ct method with normalization to the average expression levels of the five common genes (ACTB, B2M, GAPDH, HPRT, and RPL13A).

GPX4 = experiment: Human oxidative stress RT2 Profiler PCR array in HGEPp cells: GPX4; conditions: HGEPp cells pretreated 24 h at 100 μg/ml; ΔΔCt
Experimental: as §3, §4, §5, §6

PRDX2 = experiment: Human oxidative stress RT2 Profiler PCR array in HGEPp cells: PRDX2; conditions: HGEPp cells pretreated 24 h at 100 μg/ml; ΔΔCt
Experimental: as §3, §4, §5, §6

[4] = tested on: oxidative stress-related genes in HGEPp cells; experiment: Human oxidative stress RT2 Profiler PCR array in HGEPp cells: statements over several genes; conditions: for SOD1, NQ01, GCLC, GSTP1 and GCLM; 100 μg/ml, 24 h
Experimental: as §3, §4, §5, §6

Structure (SMILES) | PTGS1 down regulation relative fold change (PTGS1) [fold] | ROS level relative to Normal (100%, optical density baseline) (HGEPp cells [1]) [%] | ROS level relative to Normal (100%, optical density baseline) (HGEPp cells [2]) [%] | ALOX12 up regulation relative fold change (ALOX12) [fold] | SOD1 up regulation relative fold change (SOD1) [fold] | GPX1 up regulation relative fold change (GPX1) [fold] | NQO1 up regulation relative fold change (NQO1) [fold] | GCLC up regulation relative fold change (GCLC) [fold] | GSTP1 up regulation relative fold change (GSTP1) [fold] | GCLM up regulation relative fold change (GCLM) [fold] | GTF2i down regulation relative fold change (GTF2i) [fold] | UCP2 down regulation relative fold change (UCP2) [fold] | OGD induced caspase 3/7 activation (rat cortical neurons) | neuroprotection (rat cortical neurons) | cardioprotection [3] | MPO up regulation relative fold change (MPO) [fold] | GPX4 up regulation relative fold change (GPX4) [fold] | PRDX2 down regulation relative fold change (PRDX2) [fold] | up-regulation compared to ST-617-DPI and ST-617-DPI [4]
Cc1c(-c2cnccn2)ssc1=S [ST-617-API, 4-methyl-5-(pyrazin-2-yl)-3H-1,2-dithiole-3-thione, reference compound] | 6.22 | 124 |  |  |  |  |  |  |  |  |  |  |  |  |  |  |  |  | 
COP(=O)([O-])OC.Cc1c(-c2c[n+](C)ccn2)ssc1=S [Example 9, dimethyl phosphate complex of N-methyl oltipraz] | 0.21 |  | 112 | 6.43 | 5.22 | 4.89 | 4.24 | 4.60 | 3.16 | 3.15 | 0.28 | 0.15 | significantly reduced | high degree of neuroprotection | significant degree of cardioprotection | 3.41 | 2.93 | 0.27 | significantly higher up-regulation
